Test results from ChEMBL document CHEMBL5230129, “Antibacterial activities with the structure-activity relationship of coumarin derivatives” (2020).
Converted amounts (≈) assume the structure as drawn. Each block holds one molecule with its values, some of them ahead of it.

Legend:
Assay type in all cases: functional
Staphylococcus aureus [1] = test: Antibacterial activity against Staphylococcus aureus assessed as inhibition of bacterial growth by broth micro dilution assay
Escherichia coli [2] = test: Antibacterial activity against Escherichia coli assessed as inhibition of bacterial growth by broth micro dilution assay
Bacillus = test: Antibacterial activity against Bacillus assessed as inhibition of bacterial growth by broth micro dilution assay
Pseudomonas aeruginosa [3] = test: Antibacterial activity against Pseudomonas aeruginosa ATCC 27853 assessed as zone of inhibition incubated for 24 hrs by paper disk method
Escherichia coli [4] = test: Antibacterial activity against Escherichia coli ATCC 25922 assessed as zone of inhibition incubated for 24 hrs by paper disk method
Staphylococcus aureus [5] = test: Antibacterial activity against Staphylococcus aureus MTCC 96 assessed as inhibition of bacterial growth incubated for 18 to 20 hrs by broth microdilution assay; conditions: time 18-20 hrs
Escherichia coli [6] = test: Antibacterial activity against Escherichia coli MTCC 443 assessed as inhibition of bacterial growth incubated for 18 to 20 hrs by broth microdilution assay; conditions: time 18-20 hrs
Escherichia coli [7] = test: Antibacterial activity against Escherichia coli ATCC 8739 assessed as inhibition of bacterial growth incubated for 24 hrs by microbroth dilution assay
Enterococcus faecalis = test: Antibacterial activity against Enterococcus faecalis PCM 2673 assessed as inhibition of bacterial growth incubated for 24 hrs by microbroth dilution assay
Escherichia coli [8] = test: Antibacterial activity against Escherichia coli assessed as zone of inhibition incubated for 3 days by cup plate agar diffusion assay; conditions: time 3 day
Bacillus subtilis [9] = test: Antibacterial activity against Bacillus subtilis assessed as zone of inhibition incubated for 3 days by cup plate agar diffusion assay; conditions: time 3 day
Pseudomonas aeruginosa [10] = test: Antibacterial activity against Pseudomonas aeruginosa assessed as zone of inhibition incubated for 3 days by cup plate agar diffusion assay; conditions: time 3 day
Staphylococcus aureus [11] = test: Antibacterial activity against Staphylococcus aureus assessed as zone of inhibition incubated for 3 days by cup plate agar diffusion assay; conditions: time 3 day
Escherichia coli [12] = test: Antibacterial activity against Escherichia coli NCIM 2256 assessed as inhibition of bacterial growth incubated for 24 hrs by serial twofold dilution assay
Pseudomonas fluorescens = test: Antibacterial activity against Pseudomonas fluorescens NCIM 2173 assessed as inhibition of bacterial growth incubated for 24 hrs by serial twofold dilution assay
[13] = test system: Sphingomonas paucimobilis; test: Antibacterial activity against Flavobacterium devorans ATCC 10829 assessed as inhibition of bacterial growth incubated for 24 hrs by serial twofold dilution assay
Escherichia coli [14] = test: Antibacterial activity against Escherichia coli 1411 assessed as inhibition of bacterial growth incubated for 24 hrs by two-fold serial dilution method
Escherichia coli [15] = test: Antibacterial activity against Escherichia coli SM1411 assessed as inhibition of bacterial growth incubated for 24 hrs by two-fold serial dilution method
Pseudomonas = test: Antibacterial activity against Pseudomonas assessed as zone of inhibition
Staphylococcus aureus [16] = test: Antibacterial activity against Staphylococcus aureus assessed as inhibition of bacterial growth by broth dilution assay
Bacillus subtilis [17] = test: Antibacterial activity against Bacillus subtilis assessed as inhibition of bacterial growth by broth dilution assay

MIC (Staphylococcus aureus [1]): 1.6 µg/mL (≈ 6.52 µM)
MIC (Escherichia coli [2]): 1.6 µg/mL (≈ 6.52 µM)
MIC (Bacillus): 1.6 µg/mL (≈ 6.52 µM)
SMILES: Cc1ccc2c(C3NNC(=O)N3)cc(=O)oc2c1 (stereo not drawn)

SMILES: O=C(COc1cc(=O)oc2ccccc12)NC1CCCCCC1
inhibition zone (IZ) (Pseudomonas aeruginosa [3]): 10 mm
inhibition zone (IZ) (Escherichia coli [4]): 11 mm

MIC (Staphylococcus aureus [5]): 125 µg/mL (≈ 222 µM)
MIC (Escherichia coli [6]): 200 µg/mL (≈ 355 µM)
SMILES: Cc1cc(=O)oc2cc(OC(=O)CNC3N=C(c4ccc(F)cc4)C=C(c4ccc(F)cc4)S3)c([N+](=O)[O-])cc12 (stereo not drawn)

MIC (Escherichia coli [7]): 1600 µg/mL (≈ 4740 µM)
MIC (Enterococcus faecalis): 400 µg/mL (≈ 1190 µM)
SMILES: O=c1cc(OCc2cn(-c3ccc(F)cc3)nn2)c2ccccc2o1

SMILES: Cc1cc(=O)oc2c(C(=O)/C=C/c3ccc(Cl)cc3)c(OCc3cnnn3Cc3ccccc3)ccc12
inhibition zone (IZ) (Escherichia coli [8]): 23 mm
inhibition zone (IZ) (Bacillus subtilis [9]): 10 mm
inhibition zone (IZ) (Pseudomonas aeruginosa [10]): 8 mm
inhibition zone (IZ) (Staphylococcus aureus [11]): 25 mm

MIC (Staphylococcus aureus [5]): 250 µg/mL (≈ 431 µM)
MIC (Escherichia coli [6]): 50 µg/mL (≈ 86.2 µM)
SMILES: Cc1cc(=O)oc2cc(OC(=O)CNC3N=C(c4ccc(F)cc4)C=C(c4ccc(Cl)cc4)S3)c([N+](=O)[O-])cc12 (stereo not drawn)

MIC (Staphylococcus aureus [1]): 6.25 µg/mL (≈ 24.1 µM)
MIC (Escherichia coli [2]): 50 µg/mL (≈ 193 µM)
MIC (Bacillus): 6.25 µg/mL (≈ 24.1 µM)
SMILES: Cc1cc(C)c2c(C3NNC(=O)N3)cc(=O)oc2c1 (stereo not drawn)

MIC (Escherichia coli [7]): 1600 µg/mL (≈ 5010 µM)
MIC (Enterococcus faecalis): 50 µg/mL (≈ 157 µM)
SMILES: O=c1cc(OCc2cn(-c3ccccc3)nn2)c2ccccc2o1

MIC (Staphylococcus aureus [1]): 0.8 µg/mL (≈ 3.06 µM)
MIC (Escherichia coli [2]): 0.8 µg/mL (≈ 3.06 µM)
MIC (Bacillus): 0.8 µg/mL (≈ 3.06 µM)
SMILES: COc1ccc2oc(=O)cc(C3NNC(=O)N3)c2c1 (stereo not drawn)

MIC (Escherichia coli [12]): 4 µg/mL (≈ 9.38 µM)
MIC (Pseudomonas fluorescens): 4 µg/mL (≈ 9.38 µM)
MIC [13]: 2 µg/mL (≈ 4.69 µM)
SMILES: Cc1cc(OCc2cn(Cc3ccc(Br)cc3)nn2)cc2oc(=O)ccc12

MIC (Staphylococcus aureus [5]): 100 µg/mL (≈ 160 µM)
MIC (Escherichia coli [6]): 500 µg/mL (≈ 801 µM)
SMILES: Cc1cc(=O)oc2cc(OC(=O)CNC3N=C(c4ccc(F)cc4)C=C(c4cccc(Br)c4)S3)c([N+](=O)[O-])cc12 (stereo not drawn)

SMILES: COc1ccc(/C=C/C(=O)c2c(OCc3cnnn3Cc3ccccc3)ccc3c(C)cc(=O)oc23)cc1OC
inhibition zone (IZ) (Escherichia coli [8]): 31 mm
inhibition zone (IZ) (Bacillus subtilis [9]): 13 mm
inhibition zone (IZ) (Pseudomonas aeruginosa [10]): 11 mm
inhibition zone (IZ) (Staphylococcus aureus [11]): 32 mm

SMILES: C[C@@H](NC(=O)COc1cc(=O)oc2ccccc12)c1cccc2ccccc12
inhibition zone (IZ) (Pseudomonas aeruginosa [3]): 14 mm
inhibition zone (IZ) (Escherichia coli [4]): 12 mm

MIC (Escherichia coli [14]): 16 µg/mL (≈ 52.6 µM)
MIC (Escherichia coli [15]): 18 µg/mL (≈ 59.1 µM)
SMILES: Cc1ccc(C2CC(c3cc4ccccc4oc3=O)=NN2)cc1 (stereo not drawn)

SMILES: Cc1ccc2oc(=O)cc(-c3nc4ccccc4[nH]3)c2c1
inhibition zone (IZ) (Pseudomonas): 4.1 mm

MIC (Escherichia coli [7]): 1600 µg/mL (≈ 4580 µM)
MIC (Enterococcus faecalis): 12.5 µg/mL (≈ 35.8 µM)
SMILES: COc1ccccc1-n1cc(COc2cc(=O)oc3ccccc23)nn1

MIC (Escherichia coli [7]): 1600 µg/mL (≈ 4390 µM)
MIC (Enterococcus faecalis): 400 µg/mL (≈ 1100 µM)
SMILES: O=c1cc(OCc2cn(-c3cccc([N+](=O)[O-])c3)nn2)c2ccccc2o1

MIC (Staphylococcus aureus [16]): 3.12 µg/mL (≈ 8.78 µM)
MIC (Bacillus subtilis [17]): 0.2 µg/mL (≈ 0.563 µM)
SMILES: Cc1ccc2cc(-c3cc4cc(Br)ccc4oc3=O)oc2c1

MIC (Staphylococcus aureus [1]): 12.6 µg/mL (≈ 48.6 µM)
MIC (Escherichia coli [2]): 25 µg/mL (≈ 96.4 µM)
MIC (Bacillus): 3.12 µg/mL (≈ 12 µM)
SMILES: Cc1ccc2c(C3NNC(=O)N3)cc(=O)oc2c1C (stereo not drawn)

SMILES: Cc1ccc2c(-c3nc4ccccc4[nH]3)cc(=O)oc2c1
inhibition zone (IZ) (Pseudomonas): 4.1 mm

SMILES: CC1(C)S[C@@H]2[C@H](NC(=O)[C@H](N)c3ccc(O)cc3)C(=O)N2[C@H]1C(=O)O [AMOXICILLIN]
inhibition zone (IZ) (Escherichia coli [8]): 30 mm
inhibition zone (IZ) (Bacillus subtilis [9]): 12 mm
inhibition zone (IZ) (Pseudomonas aeruginosa [10]): 10 mm
inhibition zone (IZ) (Staphylococcus aureus [11]): 30 mm

SMILES: Cc1cc(=O)oc2c(C(=O)/C=C/c3ccccc3)c(OCc3cnnn3Cc3ccccc3)ccc12
inhibition zone (IZ) (Escherichia coli [8]): 10 mm
inhibition zone (IZ) (Bacillus subtilis [9]): 8 mm
inhibition zone (IZ) (Pseudomonas aeruginosa [10]): 4 mm
inhibition zone (IZ) (Staphylococcus aureus [11]): 11 mm

SMILES: O=c1cc(-c2nc3ccccc3[nH]2)c2ccc3ccccc3c2o1
inhibition zone (IZ) (Pseudomonas): 4.2 mm

MIC (Staphylococcus aureus [1]): 1.6 µg/mL (≈ 6.52 µM)
MIC (Escherichia coli [2]): 0.8 µg/mL (≈ 3.26 µM)
MIC (Bacillus): 0.8 µg/mL (≈ 3.26 µM)
SMILES: Cc1ccc2oc(=O)cc(C3NNC(=O)N3)c2c1 (stereo not drawn)

MIC (Escherichia coli [12]): 2 µg/mL (≈ 5.1 µM)
MIC (Pseudomonas fluorescens): 2 µg/mL (≈ 5.1 µM)
MIC [13]: 16 µg/mL (≈ 40.8 µM)
SMILES: Cc1cc(OCc2cn(Cc3ccc([N+](=O)[O-])cc3)nn2)cc2oc(=O)ccc12

SMILES: COc1ccc2oc(=O)cc(-c3nc4ccccc4[nH]3)c2c1
inhibition zone (IZ) (Pseudomonas): 4 mm
